Experiments:
Type in all cases: in vivo
barnyard grass (Eo) = experiment: Test Example 1: herbicidal effects by flooded paddy field treatment; details: dose 100 gai/10a, examined on 21st day after treatment, index 0-5 per Table 44;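 also: 0-5 growth inhibition grade; 5 = over 90%; 4 = 70-90%; 3 = 50-70%; 2 = 30-50%; 1 = 10-30%; 0 = under 10%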
Outline: (§1)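 Flooded paddy pre-emergence test: sowing into puddled soil under 3 cm water, then dropwise water-surface treatment the following day with diluted wettable powder at 100 g active ingredient per 10 ares. Greenhouse cultivation followed, and weeds were rated against a standard scale at 21 days.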

monochoria (Mo) = experiment: as above; details: dose 100 gai/10a, examined on 21st day after treatment, index 0-5 per Table 44;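 also: 0-5 growth inhibition grade; 5 = over 90%; 4 = 70-90%; 3 = 50-70%; 2 = 30-50%; 1 = 10-30%; 0 = under 10%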
Outline: as §1

barnyard grass (Ec) [1] = experiment: Test Example 2: herbicidal effects by upland soil treatment; set-up: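 0-5 growth inhibition grade; 5 = over 90%; 4 = 70-90%; 3 = 50-70%; 2 = 30-50%; 1 = 10-30%; 0 = under 10%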; details: dose 100 g active ingredient per 10 ares, examined on the 21st day after treatment, standards of Table 44
Outline: (§2)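 Pre-emergence test: barnyard grass and green foxtail sown in upland soil, then soil surface sprayed with wettable-powder formulation at 100 g active ingredient per 10 ares (100 l per 10 ares). Grown in greenhouse; herbicidal effect scored on a rating scale 21 days after treatment.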

green foxtail (Se) = experiment: as above; details: dose 100 g active ingredient per 10 ares, examined on the 21st day after treatment, standards of Table 44;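 also: 0-5 growth inhibition grade; 5 = over 90%; 4 = 70-90%; 3 = 50-70%; 2 = 30-50%; 1 = 10-30%; 0 = under 10%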
Outline: as §2

barnyard grass (Ec) [2] = experiment: Test Example 5: selectivity for a crop plant by soil treatment in upland field; set-up: scale not given here; details: dose 25 gai/10a, 21st day after treatment, index per Table 44
Procedure: (§3) In a 80 cm^2 plastic pot, upland soil was filled, and seeds of barnyard grass (Ec), green foxtail (Se), soybean (G1), wheat (Tr) and corn (Ze) were sown and covered with soil. A wettable powder prepared in accordance with Formulation Example 1 was diluted with water and uniformly applied to the soil surface by a small size spray at a rate of 100 l per 10 ares so that the dose of the active ingredient would be 25 g per 10 ares. Thereafter, cultivation was carried out in a green house, and on the 21st day after the treatment, the herbicidal effects were examined in accordance with the standards of Table 44.

corn (Ze) = experiment: as above; set-up: scale not given here; details: dose 25 gai/10a, 21st day after treatment, index per Table 44
Procedure: as §3

soybean (G1) = experiment: as above; set-up: scale not given here; details: dose 25 gai/10a, 21st day after treatment, index per Table 44
Procedure: as §3

wheat (Tr) = experiment: as above; set-up: scale not given here; details: dose 25 gai/10a, 21st day after treatment, index per Table 44
Procedure: as §3

Row | Structure (SMILES) | Herbicidal effect index, Eo (barnyard grass (Eo)) | Herbicidal effect index, Mo (monochoria (Mo)) | herbicidal effects, Ec (barnyard grass) (barnyard grass (Ec) [1]) | herbicidal effects, Se (green foxtail) (green foxtail (Se)) | Ec (herbicidal effect index) (barnyard grass (Ec) [2]) | Ze (herbicidal effect index on crop) (corn (Ze)) | Gl (herbicidal effect index on crop) (soybean (G1)) | Tr (herbicidal effect index on crop) (wheat (Tr))
1 | CC(C)C(c1cncnc1C(F)(F)F)N(C)C(=O)COc1ccccc1 (racemic) [Compound 1-64] | 5 | 5 | 5 | 5 | 4 | 0 | 2 | 3
2 | CC(C)C(c1cncnc1C(F)(F)F)N(C(=O)Cc1ccccc1)C1CC1 (racemic) [Compound 1-80] | 5 | 5 | 5 | 5 | 5 | 1 | 0 | 5
3 | CC(C)C(c1cncnc1C(F)(F)F)N(C)C(=O)Cc1ccc(C#N)cc1 (racemic) [Compound 1-75] | 5 | 5 | 5 | 5 | 4 | 2 | 0 | 3
4 | CC(C)C(c1cncnc1C(F)(F)F)N(C)C(=O)Cc1cccc(Br)c1 (racemic) [Compound 1-70] | 5 | 5 | 5 | 5 | 5 | 1 | 1 | 4
5 | CC(C)c1ccc(CC(=O)N(C)C(c2cncnc2C(F)(F)F)C(C)C)cc1 (racemic) [Compound 1-68] | 5 | 5 | 5 | 5 | 4 | 2 | 0 | 2
6 | CC(C)C(c1cncnc1C(F)(F)F)N(C)C(=O)COc1ccc(Cl)cc1 (racemic) [Compound 1-65] | 5 | 5 | 5 | 5 | 5 | 0 | 0 | 0
7 | CC(C)C(c1cncnc1C(F)(F)F)N(C)C(=O)CCc1ccccc1 (racemic) [Compound 1-77] |  |  | 5 | 5 | 5 | 2 | 1 | 3
